Source: paper PMC8364686, “Safety, tolerability, pharmacokinetics and pharmacodynamics of single oral doses of BI 187004, an inhibitor of 11beta-hydroxysteroid dehydrogenase-1, in healthy male volunteers with overweight or obesity” (Clinical Diabetes and Endocrinology, 2021)

Assay: Plasma pharmacokinetics of BI 187004 after single oral doses (LC–MS/MS)
Conditions: male, human, plasma, po
[1] = 10 mg, Plasma concentration Mean, 10 mg single oral
[2] = 10 mg, Plasma concentration Median, 10 mg single oral
[3] = 10 mg, Plasma concentration gMean, 10 mg single oral

Structure (SMILES): N#Cc1ccc2c(c1)[C@H]1CCCN(C(=O)c3ccc4[nH]cnc4c3)[C@H]1C2 [BI 187004]
- concentration at 24 h [1]: 76.9 nM
- concentration at 36 h [1]: 30.2 nM
- concentration at 48 h [1]: 22.8 nM
- concentration at 72 h [1]: 10.7 nM
- concentration at 96 h [1]: 5.72 nM
- concentration at 0.5 h (10 mg, Plasma concentration Median, 10 mg single oral, 0.5 h): 363 nM
- concentration at 1 h (10 mg, Plasma concentration Median, 10 mg single oral, 1 h): 413 nM
- concentration at 1.5 h (10 mg, Plasma concentration Median, 10 mg single oral, 1.5 h): 435 nM
- concentration at 2 h (10 mg, Plasma concentration Median, 10 mg single oral, 2 h): 396 nM
- concentration at 2.5 h (10 mg, Plasma concentration Median, 10 mg single oral, 2.5 h): 381 nM
- concentration at 3 h (10 mg, Plasma concentration Median, 10 mg single oral, 3 h): 334 nM
- concentration at 4 h (10 mg, Plasma concentration Median, 10 mg single oral, 4 h): 368 nM
- concentration at 5 h (10 mg, Plasma concentration Median, 10 mg single oral, 5 h): 272 nM
- concentration at 6 h (10 mg, Plasma concentration Median, 10 mg single oral, 6 h): 243 nM
- concentration at 8 h (10 mg, Plasma concentration Median, 10 mg single oral, 8 h): 217 nM
- concentration at 10 h [2]: 179 nM
- concentration at 12 h [2]: 147 nM
- concentration at 24 h [2]: 80 nM
- concentration at 36 h [2]: 29.6 nM
- concentration at 48 h [2]: 22.4 nM
- concentration at 72 h [2]: 9.36 nM
- concentration at 96 h [2]: 5.09 nM
- concentration at 0.5 h (10 mg, Plasma concentration gMean, 10 mg single oral, 0.5 h): 279 nM
- concentration at 1 h (10 mg, Plasma concentration gMean, 10 mg single oral, 1 h): 426 nM
- concentration at 1.5 h (10 mg, Plasma concentration gMean, 10 mg single oral, 1.5 h): 435 nM
- concentration at 2 h (10 mg, Plasma concentration gMean, 10 mg single oral, 2 h): 380 nM
- concentration at 2.5 h (10 mg, Plasma concentration gMean, 10 mg single oral, 2.5 h): 372 nM
- concentration at 3 h (10 mg, Plasma concentration gMean, 10 mg single oral, 3 h): 336 nM
- concentration at 4 h (10 mg, Plasma concentration gMean, 10 mg single oral, 4 h): 340 nM
- concentration at 5 h (10 mg, Plasma concentration gMean, 10 mg single oral, 5 h): 270 nM
- concentration at 6 h (10 mg, Plasma concentration gMean, 10 mg single oral, 6 h): 254 nM
- concentration at 8 h (10 mg, Plasma concentration gMean, 10 mg single oral, 8 h): 208 nM
- concentration at 10 h [3]: 174 nM
- concentration at 12 h [3]: 140 nM
- concentration at 24 h [3]: 71.3 nM
- concentration at 36 h [3]: 26.3 nM
- concentration at 48 h [3]: 20.5 nM
- concentration at 72 h [3]: 10.2 nM
- concentration at 96 h [3]: 5.48 nM
- concentration at 1 h (10 mg, Plasma concentration, individual subjects, 10 mg single oral, planned time 1 h): 519 nM
- concentration at 1.5 h (10 mg, Plasma concentration, individual subjects, 10 mg single oral, planned time 1.5 h): 537 nM
- concentration at 2 h (10 mg, Plasma concentration, individual subjects, 10 mg single oral, planned time 2 h): 437 nM
- concentration at 2.5 h (10 mg, Plasma concentration, individual subjects, 10 mg single oral, planned time 2.5 h): 442 nM
- concentration at 3 h (10 mg, Plasma concentration, individual subjects, 10 mg single oral, planned time 3 h): 405 nM
- concentration at 4 h (10 mg, Plasma concentration, individual subjects, 10 mg single oral, planned time 4 h): 412 nM
- concentration at 5 h (10 mg, Plasma concentration, individual subjects, 10 mg single oral, planned time 5 h): 352 nM
- concentration at 6 h (10 mg, Plasma concentration, individual subjects, 10 mg single oral, planned time 6 h): 353 nM
- concentration at 8 h (10 mg, Plasma concentration, individual subjects, 10 mg single oral, planned time 8 h): 241 nM
- AUC(0-inf) (20 mg): 12.4 µM·h
- AUC(0-t) (20 mg): 9.45 µM·h
- Cmax (20 mg): 1030 nM
- Tmax (20 mg): 1.38 h
- Vd/F (20 mg): 144 L
- half-life (20 mg): 1270 min
- concentration at 0.5 h (20 mg, BI 187004 plasma concentrations, 20 mg single oral, planned time 0.5 h, Max): 1050 nM
- concentration at 0.5 h (20 mg, BI 187004 plasma concentrations, 20 mg single oral, planned time 0.5 h, Mean): 431 nM
- concentration at 0.5 h (20 mg, BI 187004 plasma concentrations, 20 mg single oral, planned time 0.5 h, Median): 215 nM
- concentration at 0.5 h (20 mg, BI 187004 plasma concentrations, 20 mg single oral, planned time 0.5 h, Min): 34.3 nM
- concentration at 0.5 h (20 mg, BI 187004 plasma concentrations, 20 mg single oral, planned time 0.5 h, gMean): 211 nM
- concentration at 1 h (20 mg, BI 187004 plasma concentrations, 20 mg single oral, planned time 1 h, Max): 1130 nM
- concentration at 1 h (20 mg, BI 187004 plasma concentrations, 20 mg single oral, planned time 1 h, Mean): 885 nM
- concentration at 1 h (20 mg, BI 187004 plasma concentrations, 20 mg single oral, planned time 1 h, Median): 1030 nM
- concentration at 1 h (20 mg, BI 187004 plasma concentrations, 20 mg single oral, planned time 1 h, Min): 236 nM
- concentration at 1 h (20 mg, BI 187004 plasma concentrations, 20 mg single oral, planned time 1 h, gMean): 788 nM
- concentration at 1.5 h (20 mg, BI 187004 plasma concentrations, 20 mg single oral, planned time 1.5 h, Max): 1210 nM
- concentration at 1.5 h (20 mg, BI 187004 plasma concentrations, 20 mg single oral, planned time 1.5 h, Mean): 969 nM
- concentration at 1.5 h (20 mg, BI 187004 plasma concentrations, 20 mg single oral, planned time 1.5 h, Median): 944 nM
- concentration at 1.5 h (20 mg, BI 187004 plasma concentrations, 20 mg single oral, planned time 1.5 h, Min): 824 nM
- concentration at 1.5 h (20 mg, BI 187004 plasma concentrations, 20 mg single oral, planned time 1.5 h, gMean): 960 nM
- concentration at 1.5 h (20 mg, BI 187004 plasma concentrations, 20 mg single oral, planned time 1.5 h, individual subjects): 1210 nM
- concentration at 2 h (20 mg, BI 187004 plasma concentrations, 20 mg single oral, planned time 2 h, Max): 1100 nM
- concentration at 2 h (20 mg, BI 187004 plasma concentrations, 20 mg single oral, planned time 2 h, Mean): 877 nM
- concentration at 2 h (20 mg, BI 187004 plasma concentrations, 20 mg single oral, planned time 2 h, Median): 890 nM
- concentration at 2 h (20 mg, BI 187004 plasma concentrations, 20 mg single oral, planned time 2 h, Min): 630 nM
- concentration at 2 h (20 mg, BI 187004 plasma concentrations, 20 mg single oral, planned time 2 h, gMean): 863 nM
- concentration at 2 h (20 mg, BI 187004 plasma concentrations, 20 mg single oral, planned time 2 h, individual subjects): 1100 nM
- concentration at 2.5 h (20 mg, BI 187004 plasma concentrations, 20 mg single oral, planned time 2.5 h, Max): 1060 nM
- concentration at 2.5 h (20 mg, BI 187004 plasma concentrations, 20 mg single oral, planned time 2.5 h, Mean): 860 nM
- concentration at 2.5 h (20 mg, BI 187004 plasma concentrations, 20 mg single oral, planned time 2.5 h, Median): 866 nM
- concentration at 2.5 h (20 mg, BI 187004 plasma concentrations, 20 mg single oral, planned time 2.5 h, Min): 619 nM
- concentration at 2.5 h (20 mg, BI 187004 plasma concentrations, 20 mg single oral, planned time 2.5 h, gMean): 843 nM
- concentration at 2.5 h (20 mg, BI 187004 plasma concentrations, 20 mg single oral, planned time 2.5 h, individual subjects): 1060 nM
- concentration at 3 h (20 mg, BI 187004 plasma concentrations, 20 mg single oral, planned time 3 h, Max): 945 nM
- concentration at 3 h (20 mg, BI 187004 plasma concentrations, 20 mg single oral, planned time 3 h, Mean): 760 nM
- concentration at 3 h (20 mg, BI 187004 plasma concentrations, 20 mg single oral, planned time 3 h, Median): 770 nM
- concentration at 3 h (20 mg, BI 187004 plasma concentrations, 20 mg single oral, planned time 3 h, Min): 586 nM
- concentration at 3 h (20 mg, BI 187004 plasma concentrations, 20 mg single oral, planned time 3 h, gMean): 746 nM
- concentration at 3 h (20 mg, BI 187004 plasma concentrations, 20 mg single oral, planned time 3 h, individual subjects): 945 nM
- concentration at 4 h (20 mg, BI 187004 plasma concentrations, 20 mg single oral, planned time 4 h, Max): 896 nM
- concentration at 4 h (20 mg, BI 187004 plasma concentrations, 20 mg single oral, planned time 4 h, Mean): 724 nM
- concentration at 4 h (20 mg, BI 187004 plasma concentrations, 20 mg single oral, planned time 4 h, Median): 748 nM
- concentration at 4 h (20 mg, BI 187004 plasma concentrations, 20 mg single oral, planned time 4 h, Min): 531 nM
- concentration at 4 h (20 mg, BI 187004 plasma concentrations, 20 mg single oral, planned time 4 h, gMean): 707 nM
- concentration at 4 h (20 mg, BI 187004 plasma concentrations, 20 mg single oral, planned time 4 h, individual subjects): 896 nM
- concentration at 5 h (20 mg, BI 187004 plasma concentrations, 20 mg single oral, planned time 5 h, Max): 883 nM
- concentration at 5 h (20 mg, BI 187004 plasma concentrations, 20 mg single oral, planned time 5 h, Mean): 653 nM
- concentration at 5 h (20 mg, BI 187004 plasma concentrations, 20 mg single oral, planned time 5 h, Median): 644 nM
- concentration at 5 h (20 mg, BI 187004 plasma concentrations, 20 mg single oral, planned time 5 h, Min): 463 nM
- concentration at 5 h (20 mg, BI 187004 plasma concentrations, 20 mg single oral, planned time 5 h, gMean): 634 nM
- concentration at 5 h (20 mg, BI 187004 plasma concentrations, 20 mg single oral, planned time 5 h, individual subjects): 773 nM
- concentration at 6 h (20 mg, BI 187004 plasma concentrations, 20 mg single oral, planned time 6 h, Max): 847 nM
- concentration at 6 h (20 mg, BI 187004 plasma concentrations, 20 mg single oral, planned time 6 h, Mean): 566 nM
- concentration at 6 h (20 mg, BI 187004 plasma concentrations, 20 mg single oral, planned time 6 h, Median): 529 nM
- concentration at 6 h (20 mg, BI 187004 plasma concentrations, 20 mg single oral, planned time 6 h, Min): 420 nM
